Results published in patent US20260250320A1, “LIPIDATED PEPTIDE INHIBITORS OF INTERLEUKIN-23 RECEPTOR” (Janssen Pharmaceutica NV, priority 2023, published 2026).
*1 amine or outer side, *2 acyl side, *3 side chain or, on linkers, in order; H or OH if unused. Where a SMILES comes first, the peptide text is derived from it. Bridges are numbered along the chain shown (N, C = ends). Side-chain parts run from the residue outwards. [ ]: non-standard residue; d: D form. The star is where a group is joined. X11 = CN(CC(N)=O)C(=O)[C@H](Cc1cccnc1)NC(O)[C@H](CC(N)=O)N*; Me3N+(CH2)2O(CH2)2O(CH2)2CO = C[N+](C)(C)CCOCCOCCC(=O)*; PEG12 = NCCOCCOCCOCCOCCOCCOCCOCCOCCOCCOCCOCCOCCC(=O)O; CH2CH2OCH2CH2OCH2CH2NMe3+ = C[N+](C)(C)CCOCCOCC*; Trp(7-Me) = Cc1cccc2c(C[C@H](N)C(=O)O)c[nH]c12; C18 diacid = O=C(O)CCCCCCCCCCCCCCCCC(=O)*; γGlu = O=C(O)[C@H](CCC(=O)[*:2])N[*:1]; 2Nal = N[C@@H](Cc1ccc2ccccc2c1)C(=O)O; AEF = NCCOc1ccc(C[C@H](N)C(=O)O)cc1; PEG6 = NCCOCCOCCOCCOCCOCCOCCC(=O)O; X2 = C[N+](C)(C)C[C@@H](CC(=O)O)N*; 3Pal = N[C@@H](Cc1cccnc1)C(=O)O; Lys(Me) = CNCCCC[C@H](N)C(=O)O; NMeK = CN[C@@H](CCCCN)C(=O)O; Pen = CC(C)(S)[C@H](N)C(=O)O; Suc = O=C(CCC(=O)[*:2])[*:1]; Thp = NC1(C(=O)O)CCOCC1; X1 = C[N+](C)(C)CCCCC*; AEEA = NCCOCCOCC(=O)O; Sar = CNCC(=O)O

What was measured:
IL-23R = target: T1, IL-23R (Homo sapiens, UniProt Q5VWK5); test: IL23R Reporter Assay; assay type: cell-based; conditions: HEK293 cells containing IL-23R, IL-12Rβ1 and STAT-inducible firefly luciferase reporter; 10 ng/mL IL-23 (EC90); 5 h
T1 construct: HEK293 cells containing IL-23R, IL-12Rβ1 and a firefly luciferase reporter gene driven by a STAT-inducible promoter (Promega); host or cells: HEK293
T1 sequence (Q5VWK5 24-629): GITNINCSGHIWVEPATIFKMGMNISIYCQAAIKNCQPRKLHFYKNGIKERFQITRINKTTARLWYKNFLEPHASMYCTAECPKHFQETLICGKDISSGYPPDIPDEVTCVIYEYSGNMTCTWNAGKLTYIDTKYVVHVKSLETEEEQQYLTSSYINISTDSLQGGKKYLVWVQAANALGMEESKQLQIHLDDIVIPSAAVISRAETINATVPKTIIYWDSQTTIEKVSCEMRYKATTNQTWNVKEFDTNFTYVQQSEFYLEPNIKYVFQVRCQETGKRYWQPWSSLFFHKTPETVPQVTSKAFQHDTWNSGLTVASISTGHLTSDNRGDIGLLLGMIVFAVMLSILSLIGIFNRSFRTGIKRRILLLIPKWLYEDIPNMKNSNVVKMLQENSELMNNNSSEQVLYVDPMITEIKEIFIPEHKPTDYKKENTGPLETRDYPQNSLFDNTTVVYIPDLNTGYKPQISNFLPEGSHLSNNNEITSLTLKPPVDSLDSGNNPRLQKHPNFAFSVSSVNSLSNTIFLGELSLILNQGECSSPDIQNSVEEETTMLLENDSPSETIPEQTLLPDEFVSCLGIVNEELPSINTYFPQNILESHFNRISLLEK
Method in brief: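 HEK293 cells carrying IL-23R, IL-12Rβ1 and a STAT-driven firefly luciferase reporter (4000 cells/well) received compound, then 10 ng/mL IL-23 solution (EC90), and were incubated for 5 h at 37° C. BioGlo luminescence was normalised to IL-23 alone (0%) and 30 μM control inhibitor (100%). IC50 came from a 4-parameter Hill fit.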

[1] = tested on: IL-23-stimulated phosphorylated STAT3 in peripheral blood mononuclear cells (PBMCs); test: PBMC pSTAT3 Assay; assay type: cell-based; conditions: PBMCs from healthy donors; 30 min preincubation with peptide; IL-23 5 ng/mL for 30 min; phospho-STAT3 by MSD
Method in brief: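 Healthy-donor PBMCs expanded 4 days on anti-CD3 with 100 ng/mL IL-1β, starved ~4 h in RPMI-0.1% BSA, preincubated 30 min with peptide, then stimulated 30 min at 37 °C with 5 ng/mL IL-23. Lysate pSTAT3 measured by MSD phospho-STAT panel; IC50 derived.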

| IC50 (IL-23R) | SMILES | IC50 [1] |
| --- | --- | --- |
| < 50 nM | CC(=O)NCCCC[C@@H]1NC(=O)[C@H](CC2CNc3c(C)cccc32)NC(=O)[C@H]([C@@H](C)O)NC(=O)[C@H](CC(N)=O)NC(=O)[C@@H](NC(C)=O)C(C)(C)SSC(C)(C)[C@@H](C(=O)N[C@@H](Cc2ccc(OCCN)cc2)C(=O)N[C@@H](Cc2ccc3ccccc3c2)C(=O)NC2(C(=O)N[C@@H](CCCCNC(=O)CCOCCOCCOCCOCCOCCOCCOCCOCCOCCOCCOCCOCCNCCC[C@H](NC(=O)CCCCCCCCCCCCCCCCC(=O)O)C(=O)O)C(=O)N[C@@H](C)C(=O)N[C@@H](Cc3ccccc3)C(=O)N(C)CC(N)=O)CCOCC2)NC1=O (stereo partly drawn) [compound 100, MeCO-Pen(3)-N-T-7MeW-K(Ac)-Pen(3)-AEF-2Nal-THP-K(PEG12gEC18OH)-N-3Pya-Sar-CONH2] | < 0.5 nM |
| < 50 nM | CC(=O)NCCCC[C@@H]1NC(=O)[C@H](Cc2c[nH]c3c(C)cccc23)NC(=O)[C@H]([C@@H](C)O)NC(=O)[C@H](CC(N)=O)NC(=O)[C@@H](NC(=O)[C@@H](CCCNC(=N)N)NC(C)=O)C(C)(C)SSC(C)(C)[C@@H](C(=O)N[C@@H](Cc2ccc(OCCCCC[N+](C)(C)C)cc2)C(=O)N[C@@H](Cc2ccc3ccccc3c2)C(=O)NC2(C(=O)N[C@@H](CCCCNC(=O)CCOCCOCCOCCOCCOCCOCCOCCOCCOCCOCCOCCOCCNC(=O)CC[C@H](NC(=O)CCCCCCCCCCCCCCCCC(=O)O)C(=O)O)C(=O)N[C@@H](CC(N)=O)C(=O)N[C@@H](Cc3cccnc3)C(=O)N(C)CC(=O)N(C)C)CCOCC2)NC1=O [compound 123, cPEG3aCO-Pen(3)-N(N(Me)2)-T-7MeW-K(NMeAc)-Pen(3)-TMAPF-2Nal-THP-K(PEG12gEC18OH)-N-3Pya-Sar-CON(Me)2] (Ac-[dR][Pen]NT[Trp(7-Me)]K(Ac)[Pen]Y(X1)[2Nal][Thp]K([PEG12-γGlu-C18 diacid])N[3Pal][Sar]-NMe2; disulfide 2-7) | < 0.5 nM |
| < 50 nM | CC(=O)N(C)CCCC[C@@H]1NC(=O)[C@H](Cc2c[nH]c3c(C)cccc23)NC(=O)[C@H]([C@@H](C)O)NC(=O)[C@H](CC(=O)N(C)C)NC(=O)[C@@H](NC(=O)CCOCCOCC[N+](C)(C)C)C(C)(C)SSC(C)(C)[C@@H](C(=O)N[C@@H](Cc2ccc(OCCOCCOCC[N+](C)(C)C)cc2)C(=O)N[C@@H](Cc2ccc3ccccc3c2)C(=O)NC2(C(=O)N[C@@H](CCCCN(C)C(C)=O)C(=O)N[C@@H](CC(N)=O)C(=O)N[C@@H](Cc3cccnc3)C(=O)N(C)[C@@H](CCCCNC(=O)CCOCCOCCOCCOCCOCCOCCNC(=O)CC[C@H](NC(=O)CCCCCCCCCCCCCCCCC(=O)O)C(=O)O)C(N)=O)CCOCC2)NC1=O [compound 88, cPEG3aCO-Pen(3)-N(N(Me)2)-T-7MeW-K(NMeAc)-Pen(3)-APEG3F-2Nal-THP-K(NMeAc)-N-3Pya-NMeK(PEG6gEC18OH)-CONH2] ({Me3N+(CH2)2O(CH2)2O(CH2)2CO}-[Pen]D(NMe2)T[Trp(7-Me)][Lys(Me)](Ac)[Pen]Y(CH2CH2OCH2CH2OCH2CH2NMe3+)[2Nal][Thp][Lys(Me)](Ac)N[3Pal][NMeK]([PEG6-γGlu-C18 diacid])-NH2; disulfide 1-6) | < 0.5 nM |
| 50 to 500 nM | CC(=O)NCCCC[C@@H]1NC(=O)[C@H](Cc2c[nH]c3c(C)cccc23)NC(=O)[C@H]([C@@H](C)O)NC(=O)[C@H](CC(N)=O)NC(=O)[C@@H](NC(=O)[C@@H](CCCNC(=N)N)NC(=O)COCCOCCNC(=O)COCCOCCNC(=O)CC[C@H](NC(=O)CCCCCCCCCCCCCCCCC(=O)O)C(=O)O)C(C)(C)SSC(C)(C)[C@@H](C(=O)N[C@@H](Cc2ccc(OCCN)cc2)C(=O)N[C@@H](Cc2ccc3ccccc3c2)C(=O)NC2(C(=O)N[C@@H](CCCCNC(=O)CCC(=O)N[C@H](CC(=O)O)C[N+](C)(C)C)C(=O)N[C@@H](CC(N)=O)C(O)N[C@@H](Cc3cccnc3)C(=O)N(C)CC(N)=O)CCOCC2)NC1=O (stereo partly drawn) [compound 45, HOC18gEPEG2PEG2CO-r-Pen(3)-N-T-7MeW-K(Ac)-Pen(3)-AEF-2Nal-THP-K(d)-N-3Pya-Sar-CONH2] ({C18 diacid-γGlu-AEEA-AEEA}-[dR][Pen]NT[Trp(7-Me)]K(Ac)[Pen][AEF][2Nal][Thp]K([Suc-X2])-X11; disulfide 2-7) | < 0.5 nM |
